Experimental data reported in patent publication US20180127465A1 (priority 2015, published 2018).

Key:
primary cortical neurons [1] = type: cell-based
primary cortical neurons [2] = type: cell-based; remark: listed apart in the source
[3] = system: mouse middle cerebral artery occlusion (MCAO) stroke model; conditions: in vivo
primary cortical neurons [4] = type: cell-based; remark: listed apart in the source
[5] = system: mouse middle cerebral artery occlusion (MCAO) stroke model; conditions: in vivo; remark: listed apart in the source
primary cortical neurons [6] = type: cell-based; remark: listed apart in the source

SMILES	ROS production, in words (primary cortical neurons [1])	neuronal cell death (LDH), in words (primary cortical neurons [2])	improvement of neurological score [3]	relative neuronal survival (MTT), in words (primary cortical neurons [4])	Horizontal Activity [5]	No. of Movements [5]	Rest Time [5]	Stereotypy Counts [5]	Total Distance [5]	Vertical Activity [5]	less LDH release (primary cortical neurons [6])	relative neuronal death (LDH), in words (primary cortical neurons [6])
O=C1CC[C@@]2(O)[C@H]3Cc4ccc(O)c5c4[C@@]2(CCN3CC2CC2)[C@H]1O5 [NTX, naltrexone]	did not show significant decrease in ROS production	No statistical significant difference	–	–	–	–	–	–	–	–	–	–
C[C@@H](NC(=O)[C@@H](N)Cc1ccc(O)cc1)C(=O)NCC(=O)N[C@@H](Cc1ccccc1)C(=O)NNC(=O)[C@H](Cc1ccccc1)NC(=O)CNC(=O)[C@@H](C)NC(=O)[C@@H](N)Cc1ccc(O)cc1 [biphalin]	–	significantly decreased neuronal cell death	25.5%	significantly improved relative neuronal survival	760 ± 75	42 ± 6	240 ± 7 s	390 ± 46	650 ± 81 CM	28 ± 3	18.4%	significantly decreased relative neuronal death
